In patent US8222288B2, “Small molecule inhibitors of MDM2 and the uses thereof” (The Regents of the University of Michigan, priority 2006, dated 2012):
Values joined by “and” are separate entries in the source; they are usually repeats but may differ in a detail not shown here. Identical values can stand only once. Like-named read-outs stand apart in the source and are kept apart here.

How the values were obtained:
[1] = molecular target: MDM2 protein (Homo sapiens, UniProt Q00987); experiment: MDM2 binding assay (competition with F-6 probe; IC50 and calculated Ki); conditions: F-6 [1 nM]; for IC50: MDM2 [10 nM], repeat determinations listed line by line; for Ki: value in parentheses, calculation of Ki: MDM2 [10 nM], read-out: (Ki ± SD)
Chain of MDM2 protein (Q00987 whole entry, species assumed): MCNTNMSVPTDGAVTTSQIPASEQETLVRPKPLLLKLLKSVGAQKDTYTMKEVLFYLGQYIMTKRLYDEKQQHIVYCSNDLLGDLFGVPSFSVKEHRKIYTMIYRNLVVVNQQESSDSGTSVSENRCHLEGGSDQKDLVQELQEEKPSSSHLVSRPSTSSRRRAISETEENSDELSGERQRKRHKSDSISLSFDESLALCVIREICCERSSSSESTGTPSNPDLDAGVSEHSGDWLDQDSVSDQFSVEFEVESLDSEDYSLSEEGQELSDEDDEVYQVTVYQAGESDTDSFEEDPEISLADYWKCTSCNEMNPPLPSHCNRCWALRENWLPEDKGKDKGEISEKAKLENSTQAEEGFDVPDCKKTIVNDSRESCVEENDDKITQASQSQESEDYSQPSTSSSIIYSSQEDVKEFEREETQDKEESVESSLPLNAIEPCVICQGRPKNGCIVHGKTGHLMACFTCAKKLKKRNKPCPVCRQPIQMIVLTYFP

[2] = system: HCT116 p53KO cells; experiment: Cell growth inhibition, HCT116 p53KO; conditions: single runs and mean ± SD line
Experimental: (§1) Cells were seeded in 96-well flat bottom cell culture plates at a density of 3-4×10^3 cells/well and incubated in the presence of compounds for 4 days.

[3] = system: LNCaP (p53 wild-type) cells; experiment: Cell growth inhibition, WST-8, 4 days, LNCaP; conditions: single runs and mean ± SD line
Experimental: (§2) To test these predictions, a cell growth assay was developed using human prostate cancer LNCaP (p53 wild-type) and PC-3 (p53 null) cell lines.
as §1

[4] = system: PC-3 (p53 null) cells; experiment: Cell growth inhibition, WST-8, 4 days, PC3; conditions: single runs and mean ± SD line
Experimental: as §2, §1

[5] = system: HCT116 (wild-type p53) colon cancer cells; experiment: Cell growth inhibition, HCT116 p53WT; conditions: single runs and mean ± SD line
Experimental: as §1

[6] = Homo sapiens, HCT-116, read-out: HCT116 p53KO IC50 (μM), HCT116 p53KO
[7] = Homo sapiens, LNCaP, 96 h, read-out: LNCaP IC50 (μM), LNCaP p53 wild-type, 4 days, WST-8
[8] = read-out: HCT116 p53KO IC50, HCT116 p53KO
[9] = Homo sapiens, 96 h, read-out: PC3 IC50 (μM), PC3 p53 null, 4 days, WST-8
[10] = read-out: PC3 IC50, PC3 p53 null, 4 days, WST-8
[11] = Homo sapiens, HCT-116, read-out: HCT116 p53WT IC50 (μM), HCT116 p53WT
[12] = read-out: LNCaP IC50, LNCaP p53 wild-type, 4 days, WST-8
[13] = read-out: HCT116 p53WT IC50, HCT116 p53WT

| Compound | IC50 [1] | IC50 [2, 6] [µM] | IC50 [3, 7] [µM] | IC50 [4, 9] [µM] | IC50 [5, 11] [µM] | other results |
| --- | --- | --- | --- | --- | --- | --- |
| CC(C)(C)C[C@H]1N[C@@H](C(=O)NCCC2CCC(O)C2)[C@H](c2ccc(F)c(Cl)c2)[C@@]12C(=O)Nc1cc(Cl)c(F)cc12 (single isomer, unassigned) [MDM2-319-6, 6-CHLORO-4′-(3-CHLORO-4-FLUOROPHENYL)-2′-(2,2-DIMETHYL-PROPYL)-5-FLUORO-2-OXO-1,2-DIHYDRO-SPIRO[INDOLE-3,3′-PYRROLIDINE]-5′-CARBOXYLIC ACID [2-(3-HYDROXY-CYCLOPENTYL)-ETHYL]-AMIDE] | 0.59 µM and 0.55 µM |  |  |  |  |  |
| CC(C)(C)C[C@H]1N[C@@H](C(=O)NCC[C@H](O)CO)[C@H](c2ccc(F)c(Cl)c2)[C@@]12C(=O)Nc1cc(Cl)c(F)cc12 [MDM2-319, (2′R,3S,3″S,4′R,5′R)6-CHLORO-4′-(3-CHLORO-4-FLUORO-PHENYL)-2′-(2,2-DIMETHYL-PROPYL)-5-FLUORO-2-OXO-1,2-DIHYDRO-SPIRO[INDOLE-3,3′-PYRROLIDINE]-5′-CARBOXYLIC ACID (3,4-DIHYDROXY-BUTYL)-AMIDE] |  | 12.8 ± 1.29 | 0.229 ± 0.04 |  |  |  |
| O=C(NCC[C@H](O)CO)[C@@H]1N[C@H](CC2CCCC2)[C@]2(C(=O)Nc3cc(Cl)c(F)cc32)[C@H]1c1ccc(F)c(Cl)c1 [MDM2-319-1, 6-CHLORO-4′-(3-CHLORO-4-FLUOROPHENYL)-2′-CYCLOPENTYLMETHYL-5-FLUORO-2-OXO-1,2-DIHYDRO-SPIRO[INDOLE-3,3′-PYRROLIDINE]-5′-CARBOXYLIC ACID (3,4-DIHYDROXY-BUTYL)-AMIDE] | 0.194 µM and 0.072 µM |  |  |  |  |  |
| O=C(NCC[C@H](O)CO)[C@@H]1N[C@H](Cc2ccccc2)[C@]2(C(=O)Nc3cc(Cl)c(F)cc32)[C@H]1c1ccc(F)c(Cl)c1 [MDM2-319-2] | 175 µM and > 80 µM | 22.2 |  | 14.4 |  | Ki [1]: 16.4 µM; IC50 [2, 8]: 19.5 µM and 25.4 µM and 22.4 µM; IC50 [4, 10]: 19.6 µM (2×) and 17.9 µM |
| O=C(NCC[C@H](O)CO)[C@@H]1N[C@H](C2CCCCC2)[C@]2(C(=O)Nc3cc(Cl)c(F)cc32)[C@H]1c1ccc(F)c(Cl)c1 [MDM2-319-4, 6-CHLORO-4′-(3-CHLORO-4-FLUOROPHENYL)-2′-CYCLOHEXYL-5-FLUORO-2-OXO-1,2-DIHYDRO-SPIRO[INDOLE-3,3′-PYRROLIDINE]-5′-CARBOXYLIC ACID (3,4-DIHYDROXY-BUTYL)-AMIDE] | 0.71 µM and 1.16 µM and 0.46 µM |  |  |  |  | Ki [1]: 0.066 µM |
| CC(C)(C)C[C@H]1N[C@@H](C(=O)NCCC2CCC(O)C2)[C@H](c2ccc(F)c(Cl)c2)[C@@]12C(=O)Nc1cc(Cl)c(F)cc12 (some centres unmarked) [MDM2-319-5] | 0.055 µM and 0.04 µM | 10.5 | 0.602 | 9.47 | 0.993 |  |
| COC(C)(C)C[C@H]1N[C@@H](C(=O)NCC[C@H](O)CO)[C@H](c2ccc(F)c(Cl)c2)[C@@]12C(=O)Nc1cc(Cl)c(F)cc12 [MI-319-7] | 39.3 µM |  | 2.17 | 39.7 | 8.22 |  |
| O=C(NCC[C@H](O)CO)[C@@H]1N[C@H](C2CCCC2)[C@]2(C(=O)Nc3cc(Cl)c(F)cc32)[C@H]1c1ccc(F)c(Cl)c1 [MI-319-8, 6-CHLORO-4′-(3-CHLORO-4-FLUOROPHENYL)-2′-CYCLOPENTYL-5-FLUORO-2-OXO-1,2-DIHYDRO-SPIRO[INDOLE-3,3′-PYRROLIDINE]-5′-CARBOXYLIC ACID (3,4-DIHYDROXY-BUTYL)-AMIDE] | 0.34 µM and 0.53 µM |  |  |  |  |  |
| CN1CCN(C(=O)[C@@H]2N[C@H](CC(C)(C)C)[C@]3(C(=O)Nc4cc(Cl)c(F)cc43)[C@H]2c2ccc(F)c(Cl)c2)CC1 [MI-319-9] | 3.58 µM |  | 2.87 |  |  | IC50 [3, 12]: 2.77 µM and 1.75 µM |
| CC(C)(C)C[C@H]1N(S(=O)(=O)C(F)(F)F)[C@@H](C(=O)NCCN2CCOCC2)[C@H](c2ccc(F)c(Cl)c2)[C@@]12C(=O)Nc1cc(Cl)c(F)cc12 [MI-319-10] |  |  | 0.776 | 10.5 | 1.41 | IC50 [5, 13]: 1.95 µM and 1.09 µM and 1.48 µM; IC50 [4, 10]: 10.4 µM and 8.07 µM and 9.63 µM; IC50 [3, 12]: 0.828 µM and 0.449 µM and 0.68 µM |
| CC(=O)N1[C@@H](C(=O)NCC[C@H](O)CO)[C@H](c2ccc(F)c(Cl)c2)[C@@]2(C(=O)Nc3cc(Cl)c(F)cc32)[C@H]1CC(C)(C)C [MI-319-13, 1′-ACETYL-6-CHLORO-4′-(3-CHLORO-4-FLUOROPHENYL)-2′-(2,2-DIMETHYL-PROPYL)-5-FLUORO-2-OXO-1,2-DIHYDRO-SPIRO[INDOLE-3,3′-PYRROLIDINE]-5′-CARBOXYLIC ACID (3,4-DIHYDROXY-BUTYL)-AMIDE] | 5.87 µM and 5.04 µM | 32.6 |  |  |  | IC50 [2, 8]: 35.1 µM and 33 µM and 33.6 µM |
| CC(C)(C)C[C@H]1N[C@@H](C(=O)NCC(=O)O)[C@H](c2ccc(F)c(Cl)c2)[C@@]12C(=O)Nc1cc(Cl)c(F)cc12 [MI-319-15, {[6-CHLORO-4′-(3-CHLORO-4-FLUOROPHENYL)-2′-(2,2-DIMETHYL-PROPYL)-5-FLUORO-2-OXO-1,2-DIHYDRO-SPIRO[INDOLE-3,3′-PYRROLIDINE]-5′-CARBONYL]-AMINO}-ACETIC ACID] | 0.35 µM and 0.18 µM | > 30 | 4.52 | > 30 | 12.1 | IC50 [5, 13]: 12.9 µM and 13.9 µM and 13 µM; IC50 [3, 12]: 4.12 µM and 6.11 µM and 4.92 µM |
| CC(C)(C)C[C@H]1N[C@@H](C(=O)NCC[C@H](O)C(=O)O)[C@H](c2ccc(F)c(Cl)c2)[C@@]12C(=O)Nc1cc(Cl)c(F)cc12 [MI-319-16] |  |  |  | > 30 | > 30 |  |
| CC(C)(C)C[C@H]1N[C@@H](C(=O)NCCn2ccnc2)[C@H](c2ccc(F)c(Cl)c2)[C@@]12C(=O)Nc1cc(Cl)c(F)cc12 [MI-319-17, 6-CHLORO-4′-(3-CHLORO-4-FLUOROPHENYL)-2′-(2,2-DIMETHYL-PROPYL)-5-FLUORO-2-OXO-1,2-DIHYDRO-SPIRO[INDOLE-3,3′-PYRROLIDINE]-5′-CARBOXYLIC ACID (2-IMIDAZOL-1-YL-ETHYL)-AMIDE] | 0.39 µM and 0.49 µM |  |  |  |  |  |
| CC(C)(C)C[C@H]1N[C@@H](C(=O)NCC[C@@H](O)C[C@@H](O)CC(=O)O)[C@H](c2ccc(F)c(Cl)c2)[C@@]12C(=O)Nc1cc(Cl)c(F)cc12 [MI-319-18, 7-{[6-CHLORO-4′-(3-CHLORO-4-FLUOROPHENYL)-2′-(2,2-DIMETHYL-PROPYL)-5-FLUORO-2-OXO-1,2-DIHYDRO-SPIRO[INDOLE-3,3′-PYRROLIDINE]-5′-CARBONYL]-AMINO}-3,5-DIHYDROXY-HEPTANOIC ACID] | 3.51 µM and 3.57 µM | > 30 | > 30 | > 30 | > 30 |  |
| CC(C)(C)C[C@H]1N[C@@H](C(=O)NC[C@H](O)[C@H](O)CO)[C@H](c2ccc(F)c(Cl)c2)[C@@]12C(=O)Nc1cc(Cl)c(F)cc12 [MI-319-19, 6-CHLORO-4′-(3-CHLORO-4-FLUOROPHENYL)-2′-(2,2-DIMETHYL-PROPYL)-5-FLUORO-2-OXO-1,2-DIHYDRO-SPIRO[INDOLE-3,3′-PYRROLIDINE]-5′-CARBOXYLIC ACID (2,3,4-TRIHYDROXY-BUTYL)-AMIDE] | 0.5 µM and 0.49 µM |  |  |  |  |  |
| CC(C)(C)C[C@H]1N[C@@H](C(=O)NCCNC(=N)N)[C@H](c2ccc(F)c(Cl)c2)[C@@]12C(=O)Nc1cc(Cl)c(F)cc12 [MI-319-20, 6-CHLORO-4′-(3-CHLORO-4-FLUOROPHENYL)-2′-(2,2-DIMETHYL-PROPYL)-5-FLUORO-2-OXO-1,2-DIHYDRO-SPIRO[INDOLE-3,3′-PYRROLIDINE]-5′-CARBOXYLIC ACID (2-GUANIDINO-ETHYL)-AMIDE] |  |  | 27.4 |  |  | IC50 [3, 12]: 31.6 µM |
| CC(C)(C)C[C@H]1N[C@@H](C(=O)NCCc2ncc[nH]2)[C@H](c2cccc(Cl)c2)[C@@]12C(=O)Nc1cc(Cl)c(F)cc12 [MI-319-21] |  | 11.8 | 2.84 | 21.9 | 4.4 |  |
